Test results from patent publication US20240024403A1, “Compositions and Methods for Managing Weight” (Unigen, Inc., priority 2012, published 2024).

Experiments:
leptin = test: Plasma leptin level in DIO mice (ELISA); assay type: in vivo; settings: for Leptin (ng/ml) 2-week / Leptin (ng/ml) 7-week: DIO mice plasma; for Leptin (ng/ml) 2-week: 2-week treatment; for Leptin (ng/ml) 7-week: 7-week treatment; for plasma leptin level vs HFD group: week 2 and week 7, Composition 2 1300 mg/kg/day, orlistat 40 mg/kg 2 times/day, sibutramine 10 mg/kg 1 time/day
Experimental: Obese mice were treated with various three component compositions to test the anti-obesity and appetite effects of such compositions. Three component Composition 1 (Magnolia:Morus:Yerba Mate) produced according to the Example 38, three component Composition 2 (Magnolia:Morus:Mutamba) produced according to the Example 42, three component Composition 3 (Morus: Rosemary:Yerba Mate) produced according to the Example 39, and three component Composition 9 (Morus:Rosemary:Areca) produced according to the Example 41, were each separately administrated orally to DIO mice as described in the Example 48. The high fat diet (HFD) mice were divided into multiple treatment groups with a total of 10 animals per group. The mice were treated with one of the following: Composition 1 (1300 mg/kg/day), Composition 2 (1300 mg/kg/day), Composition 3 (1700 mg/kg/day), or Composition 9 (1700 mg/kg/day). Control groups included a normal diet group given vehicle only (ND, negative control), a high fat diet group given vehicle only (HFD, negative control), an orlistat group (ORI, 40 mg/kg, 2 times/day, positive control), and a sibutramine group (10 mg/kg, 1 time/day, positive control). Body weight and feed intake were measured daily for 2 weeks after treatment and then twice a week until the end of the 7 week study. At week 2 and week 7 after treatment, mice were fasted for 16 hours and then five animals were examined to measure plasma concentrations of leptin and ghrelin. Leptin and ghrelin levels were measured by using commercial ELISA kits specific for leptin or ghrelin (Millipore Co., Billerica, MA) according to the manufacturer's instructions. Measurements were taken using a microplate reader (Victor™ X3, PerkinElmer Inc., USA) and analyzed with PerkinElmer 2030 workstation computer software.

CCK peptide = CCK peptide levels in DIO mice (CCK ELISA); assay type: in vivo; settings: mice on high fat diet; after 7 weeks of administering; % ± SD
Experimental: Therefore, the effect on CCK peptide levels in mice from treatment with Composition 2 (Magnolia:Morus:Mutamba), produced according to the Example 42, or Composition 3 (Morus:Rosemary:Yerba Mate), produced according to the Example 39, was examined to determine the extent to which weight gain and/or appetite were affected through this peptide hormone pathway. Briefly, CCK peptide levels were measured after 7 weeks of administering Compositions […] and 3 to mice on a high fat diet as described in Example 48. Negative controls include mice on a normal diet (NC) and mice on a high fat diet (HFD), each group administered vehicle only. The positive controls were orlistat and sibutrimine. CCK levels were detected using a CCK ELISA assay kit according to the manufacturer's instructions (Abnova, Taipei City, Tiawan). Measurements were performed using microplate reader Victor™ X3 (PerkinElmer Inc., Waltham, MA) and computer software on the PerkinElmer 2030 workstation.

| SMILES | Leptin (ng/ml) 2-week (leptin) | Leptin (ng/ml) 7-week (leptin) | plasma leptin level vs HFD group (leptin) | % CCK binding (CCK peptide) |
| --- | --- | --- | --- | --- |
| CC(C)CC(N(C)C)C1(c2ccc(Cl)cc2)CCC1 (centres unmarked) [SIB, sibutramine] | 17.0 ± 0.43 ng/mL | 20.4 ± 0.00 ng/mL | somewhat reduced leptin level after 2 weeks of treatment | 12.3 ± 1.6% |
| CCCCCCCCCCC[C@@H](C[C@@H]1OC(=O)[C@H]1CCCCCC)OC(=O)[C@H](CC(C)C)NC=O [ORI, orlistat] | 11.6 ± 0.06 ng/mL | 19.0 ± 0.24 ng/mL | significantly reduced leptin level after 2 weeks of treatment | 72.5 ± 3.4% |
